Key:
[1] = 100 kPa, Liquid; for viscosity: Capillary tube (Ostwald / Ubbelohde) method; for speed of sound: Frequency=3 MHz, Sing-around technique in a fixed-path interferometer; for mass density: Vibrating tube method
[2] = refractive index (Na D-line) (dimensionless); conditions: 100 kPa, Liquid, Standard Abbe refractometry
[3] = xn = mol fraction of the nth substance listed; conditions: 100 kPa, Liquid, x2 = 0; for viscosity: Capillary tube (Ostwald / Ubbelohde) method; for speed of sound: Frequency=3 MHz, Sing-around technique in a fixed-path interferometer; for mass density: Vibrating tube method
[4] = refractive index (Na D-line) (dimensionless); xn = mol fraction of the nth substance listed; conditions: 100 kPa, Liquid, Standard Abbe refractometry, x2 = 0

CCC(C)O (stereo not drawn) [butan-2-ol]
Conditions | mass density, [1] [kg/m3] | refractive index, [2] | speed of sound, [1] [m/s] | viscosity, [1] [mPa·s]
283.15 K | 814.99 | 1.40126 | 1266 | 5.652
298.15 K | 802.71 | 1.39515 | 1212.2 | 3.07
313.15 K | 789.86 | 1.38878 | 1157.6 | 1.796

CCC(C)O (stereo not drawn) [butan-2-ol] + CC(=O)N(C)C
Conditions | mass density, [3] [kg/m3] | refractive index, [4] | speed of sound, [3] [m/s] | viscosity, [3] [mPa·s]
283.15 K | 814.99 | 1.40126 | 1266 | 5.652
298.15 K | 802.71 | 1.39515 | 1212.2 | 3.07
313.15 K | 789.86 | 1.38878 | 1157.6 | 1.796

CC(C)O [propan-2-ol]
Conditions | mass density, [1] [kg/m3] | refractive index, [2] | speed of sound, [1] [m/s] | viscosity, [1] [mPa·s]
283.15 K | 793.41 | 1.38149 | 1191.9 | 3.306
298.15 K | 781.07 | 1.37505 | 1139.2 | 2.051
313.15 K | 768 | 1.36829 | 1086.6 | 1.334

CC(C)O [propan-2-ol] + CC(=O)N(C)C
Conditions | mass density, [3] [kg/m3] | refractive index, [4] | speed of sound, [3] [m/s] | viscosity, [3] [mPa·s]
283.15 K | 793.41 | 1.38149 | 1191.9 | 3.306
298.15 K | 781.07 | 1.37505 | 1139.2 | 2.051
313.15 K | 768 | 1.36829 | 1086.6 | 1.334
